These compounds were tested on Plasmodium falciparum (assay: GSK_TCMDC: Inhibition of Plasmodium falciparum 3D7 in whole erythrocytes, using parasite LDH activity as an index of growth.). Settings: Plasmodium falciparum, 3D7.
Type: functional, organism-based
Compound `Oc1ccc(Cl)cc1Nc1nc(C(F)(F)F)nc2ccccc12` has an XC50 of 938 nM.
For `CN(C)c1c(CNCCCCCCNCc2ccc3ccccc3c2N(C)C)ccc2ccccc12`, the XC50 was 463 nM.
For `O=C(/C=C/c1ccc(Cl)c(Cl)c1)NCCCCCCN1CCCN(C(=O)Nc2cc(Cl)cc(Cl)c2)CC1`, the XC50 was 780 nM.
Compound `c1cc(CNC2Cc3ccccc3C2)cc(-c2cnc(N3CCNCC3)nc2)c1` has an XC50 of 943 nM.
Compound `COc1cccc(C2CCN(CCN3CCC(NC(=O)c4ccc(-c5ccc(C#N)cc5)cc4)CC3)CC2)c1` has an XC50 of 699 nM.
`O=C(Nc1ccc(C(=O)OCC(c2ccccc2)c2ccccc2)cc1)N[C@@H](Cc1ccc(O)cc1)C(=O)NC1CCN(Cc2ccc(O)cc2)C1` (some centres not stated) showed an XC50 of 782 nM.
With `Cc1cccc(NC(=O)Nc2ccc(I)c(OCCN(C)C)c2)c1C` the XC50 was 725 nM.
`CC1CN(CC(O)Cn2c3ccc(Br)cc3c3cc(Br)ccc32)CC(C)O1` (configuration not stated) showed an XC50 of 776 nM.
`Oc1ccc(CN2Cc3ccccc3OC3(CCN(Cc4c[nH]c5cnccc45)CC3)C2)cc1` was tested, and the XC50 was 1170 nM.
In the case of `Cc1ccccc1C1CCN(C2CCC(NC(=O)c3ccc4c(c3)-c3nocc3C(C)O4)CC2)CC1` (configuration not stated), the XC50 is reported as 1270 nM.
Compound `COCCNC(=O)C(CNC(=O)c1ccc2c(c1)OCO2)NC(=O)c1ccc(-c2ccccc2)cc1` (configuration not stated) has an XC50 of 974 nM.
Compound `c1ccc2c(c1)CN(CC1CCOCC1)CC1(CCN(Cc3c[nH]c4cnccc34)CC1)O2` has an XC50 of 1550 nM.
`Cc1cccc(Cn2c(Cc3ccccc3)nnc2Sc2ccc([N+](=O)[O-])c(C#N)c2)c1` gave an XC50 of 1140 nM.
In the case of `COc1ccc2nccc([C@@H](O)CN3CCC(NC(=O)c4[nH]c5ccccc5c4-c4ccccc4)CC3)c2c1`, the XC50 is reported as 904 nM.
Work on `OC(CNc1ccnc(Nc2cccc(CCN3CCOCC3)c2)n1)c1ccccc1` (configuration not stated) yielded an XC50 of 594 nM.
`CCOc1cc(Cc2cnc(N)nc2N)cc(OC)c1OC` gave an XC50 of 913 nM.
Compound `COc1ccc(CNC(=O)c2cnc3c(O)cccc3c2Nc2cccc(NC(=O)c3ccc(-c4ccccc4)cc3)c2)cc1` has an XC50 of 941 nM.
Work on `CCOc1cc(C(=O)NCCCN2CCCCC2C)ccc1-c1nc2cc(Cl)ccc2[nH]1` (configuration not stated) yielded an XC50 of 1070 nM.
`COCCN1CCN(Cc2cccc(-c3ccc(-c4nc5ccccc5[nH]4)cc3)c2)CC1` showed an XC50 of 761 nM.
In the case of `O=C(Cc1cccnc1)Nc1cccc(-c2cccc(-c3nc4cc(C(F)(F)F)ccc4[nH]3)c2)c1`, the XC50 is reported as 677 nM.
Compound `COc1ccccc1C(=O)N1CCN(Cc2cccs2)CC1` has an XC50 of 869 nM.
`c1ccc(OCCCCN2CCCCC2)cc1` was tested, and the XC50 was 537 nM.
`Fc1cccc(Cl)c1-c1nc(NCCC(c2ccccc2)c2ccccc2)no1` gave an XC50 of 546 nM.
`OC(CNC1CCCCCCC1)c1ccc(Cl)c(Cl)c1` (configuration not stated) showed an XC50 of 205 nM.
For `COc1cc2nc(Nc3ccc(Oc4ccccc4)cc3)nc(Nc3ccc(Oc4ccccc4)cc3)c2cc1OC`, the XC50 was 934 nM.
For `CC(=O)Nc1ccc2[nH]cc(C3CCN(CC4CCC(NC(=O)/C=C/c5ccc(Cl)c(Cl)c5)CC4)CC3)c2n1` (configuration not stated), the XC50 was 263 nM.
`CC(=O)Nc1ccc(Nc2c3ccccc3nc3ccccc23)cc1` showed an XC50 of 1020 nM.
Work on `CCCCNc1c(C(=O)OCC)c(C)nc2c1[nH]c1ccccc12` yielded an XC50 of 680 nM.
`COc1ccc(NC(=O)/C=C/c2ccccc2Cl)cc1OCCN1CCC(N2CCCC2)CC1` gave an XC50 of 786 nM.
`CCNc1cc(-c2cccc(OC)c2)nc(Nc2ccc(F)cc2)n1` showed an XC50 of 1270 nM.
`CSC1=NC(=Nc2ccccc2C)C2(CCC(C(C)(C)C)CC2)N1c1ccccc1Cl` (configuration not stated) showed an XC50 of 800 nM.
`CCCCCCOc1ccc(N2C(N)=NC(N)=NC2(C)C)cc1` showed an XC50 of 344 nM.
Work on `CCc1cc(NC2CCN(C)CC2)nc(Nc2cccc(OC)c2)n1` yielded an XC50 of 856 nM.
In the case of `O=C(CCNc1ccnc(NCC2CCCCC2)n1)Nc1ccccc1`, the XC50 is reported as 1100 nM.
`N#Cc1cccc(NC(=O)Nc2ccc3c(c2)CN(Cc2c[nH]c4ncccc24)C3)c1` showed an XC50 of 800 nM.
For `CCN(CC)CCNC(=O)c1ccc(NC(=O)c2cc(-c3ccncc3)nc3ccccc23)cc1`, the XC50 was 770 nM.
Work on `COc1cc2nc(N3CCC(CNC(=O)c4cccc5cccnc45)CC3)nc(N)c2cc1OC` yielded an XC50 of 1700 nM.
For `Cc1[nH]c(C)c([N+](=O)[O-])c(=O)c1-c1ccc(Oc2ccccc2)cc1`, the XC50 was 266 nM.
In the case of `CC(=O)Oc1cc(C)ccc1C1CCN(CCCCNC(=O)c2ccc(NC(=O)c3ccc(Cl)cc3)cc2)CC1`, the XC50 is reported as 721 nM.
Compound `COc1ccccc1CCNc1nc(C)cc(N[C@@H](Cc2ccccc2)C(=O)NCCOc2ccccc2)n1` has an XC50 of 1210 nM.
`CC[C@H]1CN2CC[C@@H]1C[C@H]2[C@H](O)c1cc(N2CCC(C)CC2)nc2ccc(OC)cc12` gave an XC50 of 172 nM.
`COc1ccc(OC)c2c1CCN(CCN1CCC(C(=O)Nc3ccc(C(=O)Nc4ccc(Cl)cc4)cc3)CC1)C2` showed an XC50 of 582 nM.
`CCCc1cc(C)ccc1OCCCON1C(NC(=O)OCC)=NC(NC(=O)OCC)=NC1(C)C` gave an XC50 of 35.9 nM.
Work on `COc1ccccc1N1CCN(CCCCNC(=O)c2ccc(NC(=O)c3ccc4ccccc4c3)cc2)CC1` yielded an XC50 of 800 nM.
Work on `CCCc1cc(N2CCC(N3CCCC3)CC2)nc(Nc2ccc(OC)cc2)n1` yielded an XC50 of 807 nM.
Compound `COc1ccc2nccc([C@@H](O)CN3CCC(NC(=O)C(c4cc5ccccc5o4)N4CCN(Cc5ccccc5)CC4)CC3)c2c1` (some centres not stated) has an XC50 of 163 nM.
`COc1ccc(Oc2ccc(Nc3ccnc4ccc(C(F)(F)F)cc34)cc2)cc1OC` showed an XC50 of 1060 nM.
`CCOc1cc(C(=O)Nc2ccc(-c3nc4ccccc4[nH]3)cc2)cc(OCC)c1OCC` was tested, and the XC50 was 234 nM.
In the case of `CSc1cccc(NC(=O)c2cc3ccccc3oc2=O)c1`, the XC50 is reported as 833 nM.
Work on `COCCN1CCN(Cc2ccc(-c3ccc(-c4nc5cc(F)ccc5[nH]4)cc3)cc2)CC1` yielded an XC50 of 717 nM.
Work on `Cc1noc(C)c1-c1cccc(CNCc2cccc(-c3cccc(-c4nc5cccc(C)c5[nH]4)c3)c2)c1` yielded an XC50 of 370 nM.
For `C[C@@H]([C@@H](CCCc1ccc(Cl)cc1)C(=O)N[C@H](C(=O)Nc1cccnc1)C(C)(C)C)N(O)C=O`, the XC50 was 719 nM.
`CC(Oc1ccc(C(=O)c2ccc(F)cc2)cc1)C(=O)N1CCc2ccccc21` (configuration not stated) gave an XC50 of 413 nM.
In the case of `Fc1ccccc1COc1ccc(Nc2ncnc3ccc(-c4nnc(C(F)(F)F)o4)cc23)cc1Cl`, the XC50 is reported as 731 nM.
Compound `O=C(CCc1c[nH]cn1)Nc1ccc(-c2ccc(-c3nc4cc(F)ccc4[nH]3)cc2)cc1` has an XC50 of 693 nM.
`Oc1ccc2[nH]cc(C3=CCN(CCc4ccccc4)CC3)c2c1` was tested, and the XC50 was 313 nM.
Work on `CCOC(=O)c1cn(CC)c2cc(N3CCCCC3)c(F)cc2c1=O` yielded an XC50 of 125 nM.
`O=c1nc2[nH]c3ccccc3n2c(=O)[nH]1` gave an XC50 of 174 nM.
`CN1CCN(c2cccc(-c3nnc(-c4ccc(OCC(=O)NCc5cccc(C(F)(F)F)c5)c([N+](=O)[O-])c4)o3)c2)CC1` was tested, and the XC50 was 962 nM.
In the case of `Cc1cc(NCCC(=O)Nc2ccccc2)nc(NCC2CCCCC2)n1`, the XC50 is reported as 841 nM.
`COc1cc(C(=O)N2CCOC(CCN3CCC(c4ccc(Cl)cc4)CC3)(c3ccc(Cl)c(Cl)c3)C2)cc(OC)c1OC` (configuration not stated) showed an XC50 of 179 nM.
Work on `CN1CCN(c2cccc(-c3nnc(-c4cccc(OCC(=O)NCc5ccc(C(F)(F)F)cc5)c4)o3)c2)CC1` yielded an XC50 of 759 nM.
`Fc1cccc(COc2ccc(-n3ccc4c(NCCCn5ccnc5)ncnc43)cc2Cl)n1` showed an XC50 of 1030 nM.
Compound `COc1ccc(NC(=O)/C=C/c2cc(Br)ccc2F)cc1OCCN(C(C)C)C(C)C` has an XC50 of 757 nM.
Compound `CCn1c(-c2nonc2N)nc2c(-c3cc4ccccc4s3)ncc(C(=O)N3CCC(N)C3)c21` (configuration not stated) has an XC50 of 871 nM.
With `COc1cccc(C(O)CNc2ccnc(Nc3ccc(Cl)cc3)n2)c1` (configuration not stated) the XC50 was 606 nM.
In the case of `Cc1cc(C=C2SC(=Nc3ccccc3)N(C3CCCC3)C2=O)c(C)n1-c1ccc(Cl)cc1`, the XC50 is reported as 876 nM.
Compound `COc1ccc2nc(-c3ccccc3)cc(N/N=C/c3ccc([N+](=O)[O-])cc3)c2c1` has an XC50 of 149 nM.
`COC(=O)c1ccc(NC(=O)c2ccc(CCN3CCC(c4nc(COCC(F)(F)F)c(-c5ccc(F)cc5)o4)CC3)cc2)cc1` was tested, and the XC50 was 1040 nM.
`Oc1ccc(CN2CCN(CCOC(c3ccccc3)c3ccc(Cl)cc3)CC2)cc1Cl` (configuration not stated) showed an XC50 of 858 nM.
Compound `CC1(C)N=C(N)N=C(N)N1OCC1COc2ccccc2O1` (configuration not stated) has an XC50 of 35 nM.
In the case of `CN(C)c1ccc(-c2csc(C(=O)NC3CCCCN(Cc4ccc(C(C)(C)C)cc4)C3)c2)cc1` (configuration not stated), the XC50 is reported as 1110 nM.
In the case of `CC(C)c1ccc(N(CC(=O)N/N=C/c2ccc(C(F)(F)F)cc2)S(=O)(=O)c2ccc(C(F)(F)F)cc2)cc1`, the XC50 is reported as 846 nM.
`Cc1nc(C)c(-c2ccc(Oc3ccc(Cl)cc3)c(Cl)c2)c(O)c1Br` was tested, and the XC50 was 495 nM.
In the case of `CC1(C)N=C(N)N=C(NOCCCCCCONC2=NC(N)=NC(C)(C)N2)N1`, the XC50 is reported as 33.3 nM.
With `FC(F)(F)c1ccc2[nH]ccc(=NN=CC=Cc3ccccc3)c2c1` the XC50 was 1020 nM.
For `COc1ccc(-c2ccc(NC(=O)c3cccc(Cl)c3)cc2)cc1CN(C)CCN(C)C`, the XC50 was 782 nM.
With `CN1CCN(c2ccnc3cc4c(cc23)N(C(=O)Nc2ccc3c(c2)CCCC3=O)CC4)CC1` the XC50 was 623 nM.
`CCCC(CCC)n1ccc2c3c(N)nc(N)nc3ccc21` was tested, and the XC50 was 4.9 nM.
For `Cc1cc(N(C)C2CCN(C)C2)nc(Nc2ccccc2Cl)n1` (configuration not stated), the XC50 was 754 nM.
In the case of `Cc1nn(-c2cccc(C(F)(F)F)c2)c2sc(C(=O)NC3CCN(C(C)C)CC3)cc12`, the XC50 is reported as 898 nM.
With `N#Cc1ccc(-c2ccc(C(=O)NCCCCN3CCC(c4ccc5c(c4OCc4ccccn4)CCCC5)CC3)cc2)cc1` the XC50 was 824 nM.
Work on `COc1ccc(Nc2nccc(-c3cccc(NC(=O)c4cc5cc(F)ccc5[nH]4)c3)n2)cc1` yielded an XC50 of 1030 nM.
Compound `O=C(Nc1ccc([N+](=O)[O-])cc1O)Nc1ccccc1Oc1ccccc1` has an XC50 of 925 nM.
`CCn1c(Sc2ccc(C#N)c([N+](=O)[O-])c2)nnc1-c1ccc(OC)cc1` gave an XC50 of 805 nM.
`CCN(CC)CCN1C(=O)C(O)(c2ccccc2Cl)c2c1cc(C#N)cc2C(F)(F)F` (configuration not stated) was tested, and the XC50 was 947 nM.
Compound `Oc1ccc2ncnc(Nc3ccc(OCc4cccc(F)c4)c(Cl)c3)c2c1` has an XC50 of 993 nM.
Compound `CCCNC(=O)c1cncc(-c2ccc(CNCCCc3ccccc3)cc2)c1` has an XC50 of 688 nM.
In the case of `O=C(O)C[C@H](NC(=O)[C@@H]1CCCN1C(=O)c1cccc(-c2ccc(Cl)c(Cl)c2)c1)C(=O)O`, the XC50 is reported as 863 nM.
In the case of `CN(C)CCNC(=O)c1cccc(-c2cnc3ccc(NCc4ccc(Cl)c(Cl)c4)nn23)c1`, the XC50 is reported as 698 nM.
`FC(F)(F)Oc1ccc(Nc2cc(-c3ccncc3)nc(-c3cccnc3)n2)cc1` was tested, and the XC50 was 672 nM.
With `CN1CCN(CCCNCc2ccc(Nc3nccc(Nc4ccc(Oc5ccccc5)cc4)n3)cc2)CC1` the XC50 was 635 nM.
`FC(F)(F)c1ccc(CNCC2CCN(Cc3ccc4c(c3)OCO4)CC2)cc1` gave an XC50 of 1360 nM.
In the case of `COc1ccc(N2CCN(CCCC/C=C/c3ccc(NC(=O)c4cc(Cl)cc(Cl)c4)cc3)CC2)c(OC)c1`, the XC50 is reported as 660 nM.
`CCCCCN1CCCCC(NS(=O)(=O)c2ccc(C(=O)Nc3cccc(C(F)(F)F)c3)cc2)C1` (configuration not stated) was tested, and the XC50 was 750 nM.
Work on `Cc1cccc2nc(-c3cccc(-c4cccc(C(=O)NCc5nccn5C)c4)c3)[nH]c12` yielded an XC50 of 528 nM.
`Cc1ccc2c(=O)n(C)c(=O)n(C)c2n1` showed an XC50 of 819 nM.

From ChEMBL document CHEMBL1157539, “Thousands of chemical starting points for antimalarial lead identification” (Nature, 2010)
